In paper PMC3961306, “Comparison of the Cancer Gene Targeting and Biochemical Selectivities of All Targeted Kinase Inhibitors Approved for Clinical Use” (PLoS ONE, 2014):

Columns and labels:
Assay in all cases: Kinase profiling in a biochemical assay panel (mobility shift assays and ELISA), %-inhibition at 1 μM; selectivity entropy
[1] = molecular target: T1, panel of more than 300 wild-type and mutant kinases (313 kinase panel) (Homo sapiens, UniProt P29322)
T1 sequence (P29322 28-1005): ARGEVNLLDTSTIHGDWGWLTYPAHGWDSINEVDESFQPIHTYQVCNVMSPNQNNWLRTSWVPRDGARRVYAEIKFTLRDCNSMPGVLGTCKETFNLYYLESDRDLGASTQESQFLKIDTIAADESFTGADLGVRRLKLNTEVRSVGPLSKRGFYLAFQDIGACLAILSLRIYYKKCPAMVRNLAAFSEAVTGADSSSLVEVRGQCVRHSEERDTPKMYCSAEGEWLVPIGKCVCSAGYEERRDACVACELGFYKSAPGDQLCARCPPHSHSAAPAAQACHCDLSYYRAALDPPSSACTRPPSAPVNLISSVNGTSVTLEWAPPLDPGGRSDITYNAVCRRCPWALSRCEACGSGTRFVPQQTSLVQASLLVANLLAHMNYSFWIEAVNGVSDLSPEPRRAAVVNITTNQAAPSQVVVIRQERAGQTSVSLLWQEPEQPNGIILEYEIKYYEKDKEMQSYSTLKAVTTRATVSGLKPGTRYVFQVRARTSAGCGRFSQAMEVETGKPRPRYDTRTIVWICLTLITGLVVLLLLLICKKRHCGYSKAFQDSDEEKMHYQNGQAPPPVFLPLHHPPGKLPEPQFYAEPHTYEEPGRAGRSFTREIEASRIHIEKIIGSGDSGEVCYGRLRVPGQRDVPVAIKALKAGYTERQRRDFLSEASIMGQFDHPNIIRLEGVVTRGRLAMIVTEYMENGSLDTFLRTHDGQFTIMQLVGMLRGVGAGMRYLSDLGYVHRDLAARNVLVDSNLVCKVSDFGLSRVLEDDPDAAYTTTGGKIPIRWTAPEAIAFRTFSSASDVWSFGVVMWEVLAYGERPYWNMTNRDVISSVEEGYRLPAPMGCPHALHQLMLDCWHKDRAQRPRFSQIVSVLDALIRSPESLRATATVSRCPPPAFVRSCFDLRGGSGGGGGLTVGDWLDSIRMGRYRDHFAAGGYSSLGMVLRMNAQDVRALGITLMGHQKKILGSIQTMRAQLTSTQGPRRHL

[2] = molecular target: T2, panel of more than 300 wild-type and mutant kinases (313 kinase panel) (Homo sapiens, UniProt Q9HBY8)
T2 sequence (Q9HBY8 1-367): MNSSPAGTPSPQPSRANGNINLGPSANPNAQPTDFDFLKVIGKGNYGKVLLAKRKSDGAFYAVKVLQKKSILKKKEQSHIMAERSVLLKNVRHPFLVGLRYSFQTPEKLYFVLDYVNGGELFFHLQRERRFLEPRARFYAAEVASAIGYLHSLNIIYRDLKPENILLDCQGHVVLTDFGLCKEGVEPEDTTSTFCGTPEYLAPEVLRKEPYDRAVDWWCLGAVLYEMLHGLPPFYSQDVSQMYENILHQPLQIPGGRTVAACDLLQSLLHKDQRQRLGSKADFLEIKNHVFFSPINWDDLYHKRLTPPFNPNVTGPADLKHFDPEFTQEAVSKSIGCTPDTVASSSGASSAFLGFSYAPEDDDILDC

[3] = molecular target: T3, panel of more than 300 wild-type and mutant kinases (313 kinase panel) (Homo sapiens, UniProt O00141)
T3 sequence (O00141 1-431): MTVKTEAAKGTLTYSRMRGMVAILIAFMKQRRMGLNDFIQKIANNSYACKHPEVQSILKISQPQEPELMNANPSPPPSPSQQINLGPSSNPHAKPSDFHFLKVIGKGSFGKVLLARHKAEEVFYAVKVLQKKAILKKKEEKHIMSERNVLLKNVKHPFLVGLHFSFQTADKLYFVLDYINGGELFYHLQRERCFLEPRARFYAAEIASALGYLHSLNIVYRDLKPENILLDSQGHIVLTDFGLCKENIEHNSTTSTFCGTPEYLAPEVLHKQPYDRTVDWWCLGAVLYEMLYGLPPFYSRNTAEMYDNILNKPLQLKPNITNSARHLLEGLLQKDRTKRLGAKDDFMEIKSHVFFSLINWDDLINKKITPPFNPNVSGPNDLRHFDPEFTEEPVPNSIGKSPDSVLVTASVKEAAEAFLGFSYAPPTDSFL

[4] = molecular target: panel of more than 300 wild-type and mutant kinases (313 kinase panel) (Homo sapiens, UniProt P21802)

Row | Compound | %-inhibition of EPHA8 ([1]; kinase EPHA8, compound at 1 μM) | %-inhibition of SGK2 ([2]; kinase SGK2, 1 μM) | %-inhibition of SGK ([3]; kinase SGK, 1 μM) | %-inhibition of FGFR2 ([4]; kinase FGFR2, compound at 1 μM) | %-inhibition of EPHA8 ([1]; 1 µM) | %-inhibition of SGK2 ([2]; 1 µM) | %-inhibition of SGK ([3]; 1 µM) | %-inhibition of FGFR2 ([4]; 1 µM)
1 | COc1cc(Nc2c(C#N)cnc3cc(OCCCN4CCN(C)CC4)c(OC)cc23)c(Cl)cc1Cl [bosutinib] | 99% | -3.37% | -5% | – | – | – | – | –
2 | COc1cc2nccc(Oc3ccc(NC(=O)C4(C(=O)Nc5ccc(F)cc5)CC4)cc3)c2cc1OC [cabozantinib] | 98% | -1.48% | -2% | 32% | – | – | – | –
3 | C[C@@H](Oc1cc(-c2cnn(C3CCNCC3)c2)cnc1N)c1c(Cl)ccc(F)c1Cl [crizotinib] | 82% | -2.31% | 1.46% | 27% | – | – | – | –
4 | CC(C)(C)c1nc(-c2cccc(NS(=O)(=O)c3c(F)cccc3F)c2F)c(-c2ccnc(N)n2)s1 [dabrafenib] | 35% | -7.58% | 4% | 4% | – | – | – | –
5 | Cc1nc(Nc2ncc(C(=O)Nc3c(C)cccc3Cl)s2)cc(N2CCN(CCO)CC2)n1 [dasatinib] | – | 6% | 6% | – | – | – | – | –
6 | C#Cc1cccc(Nc2ncnc3cc(OCCOC)c(OCCOC)cc23)c1 [erlotinib] | – | – | – | – | 33% | 10% | 6% | 58%
7 | CO[C@H]1C[C@@H]2CC[C@@H](C)[C@@](O)(O2)C(=O)C(=O)N2CCCC[C@H]2C(=O)O[C@H]([C@H](C)C[C@@H]2CC[C@@H](OCCO)[C@H](OC)C2)CC(=O)[C@H](C)/C=C(\C)[C@@H](O)[C@@H](OC)C(=O)[C@H](C)C[C@H](C)/C=C/C=C/C=C/1C [everolimus] | -3.63% | -2% | -6.59% | -10% | – | – | – | –
8 | O=S(=O)(c1cccc2cnccc12)N1CCCNCC1 [fasudil] | -10% | -0.764% | 2.82% | -1.76% | – | – | – | –
9 | CS(=O)(=O)CCNCc1ccc(-c2ccc3ncnc(Nc4ccc(OCc5cccc(F)c5)c(Cl)c4)c3c2)o1 [lapatinib] | – | 1.81% | 2.49% | – | – | – | – | 0.434%
10 | Cc1cn(-c2cc(NC(=O)c3ccc(C)c(Nc4nccc(-c5cccnc5)n4)c3)cc(C(F)(F)F)c2)cn1 [nilotinib] | 98% | 24% | 9% | – | – | – | – | -67%
11 | Cc1ccc(Nc2nccc(N(C)c3ccc4c(C)n(C)nc4c3)n2)cc1S(N)(=O)=O [pazopanib] | 43% | -3.44% | -1.12% | 97% | – | – | – | –
12 | Cc1ccc(C(=O)Nc2ccc(CN3CCN(C)CC3)c(C(F)(F)F)c2)cc1C#Cc1cnc2cccnn12 [ponatinib] | 100% | 12% | 7.57% | 100% | – | – | – | –
13 | CNC(=O)c1cc(Oc2ccc(NC(=O)Nc3ccc(Cl)c(C(F)(F)F)c3)c(F)c2)ccn1 [regorafenib] | 95% | 1% | -5.37% | 103% | – | – | – | –
14 | N#CC[C@H](C1CCCC1)n1cc(-c2ncnc3[nH]ccc23)cn1 [ruxolitinib] | 0.379% | -1.48% | -2.44% | 29% | – | – | – | –
15 | CCN(CC)CCNC(=O)c1c(C)[nH]c(/C=C2\C(=O)Nc3ccc(F)cc32)c1C [sunitinib] | – | – | 60% | 97% | – | – | – | –
16 | CO[C@H]1C[C@@H]2CC[C@@H](C)[C@@](O)(O2)C(=O)C(=O)N2CCCC[C@H]2C(=O)O[C@H]([C@H](C)C[C@@H]2CC[C@@H](OC(=O)C(C)(CO)CO)[C@H](OC)C2)CC(=O)[C@H](C)/C=C(\C)[C@@H](O)[C@@H](OC)C(=O)[C@H](C)C[C@H](C)/C=C/C=C/C=C/1C [temsirolimus] | -6.55% | -2.66% | -3.17% | -9% | – | – | – | –
17 | CC(=O)Nc1cccc(-n2c(=O)n(C3CC3)c(=O)c3c(Nc4ccc(I)cc4F)n(C)c(=O)c(C)c32)c1 [trametinib] | -8% | -7% | 0.217% | -2.64% | – | – | – | –
18 | COc1cc2c(Nc3ccc(Br)cc3F)ncnc2cc1OCC1CCN(C)CC1 [vandetanib] | 98% | -2% | -4.51% | 103% | – | – | – | –
19 | CCCS(=O)(=O)Nc1ccc(F)c(C(=O)c2c[nH]c3ncc(-c4ccc(Cl)cc4)cc23)c1F [vemurafenib] | 7% | 2.66% | -0.122% | 10% | – | – | – | –
